# Assay results as given in patent publication US12617762B2, “Carboxy derivatives with antiinflamatory properties” (Sitryx Therapeutics Limited, priority 2019, dated 2026).
# Read-outs that look alike come from different tables or passages of the source.
# Experiments:
# [1] = tested on: IL-1β cytokine output from THP-1s; assay: THP-1 AlphaLISA IL-1β cytokine inhibition assay; type: cell-based
# How it was run: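 THP-1 cells differentiated with PMA for 72 h, pre-incubated with compound 30 min, then LPS-primed 24 h and Nigericin-stimulated 1 h (37° C./5% CO2). Supernatant IL-1β measured by AlphaLISA; percentage inhibition normalised to +LPS (high) and −LPS (low) plate controls.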
# [2] = tested on: IL-6 cytokine output from THP-1s; assay: THP-1 AlphaLISA IL-6 cytokine inhibition assay; type: cell-based
# How it was run: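 THP-1 cells differentiated with PMA for 72 h, then pre-incubated with compound 30 min, stimulated with LPS 24 h, then Nigericin 1 h, all at 37° C. Supernatant IL-6 measured by AlphaLISA. Percentage inhibition normalized to +/− LPS plate controls.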
# [3] = tested on: NRF2 (nuclear factor erythroid 2-related factor 2); assay: NRF2 +/-GSH activation assay (DiscoverX PathHunter NRF2 translocation kit, U2OS cells); type: cell-based; details: for NRF2 activation +GSH Emax / NRF2 activation −GSH Emax / −GSH Emax: normalised to DMF high control
# How it was run: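 U2OS PathHunter eXpress cells, 24 h post-plating, treated with compound ±GSH (+GSH arm: 30 min compound–GSH pre-incubation, 6 mM working GSH), then 6 h at 37 °C. NRF2 nuclear translocation read by enzyme-fragment-complementation chemiluminescence; % activation normalised to DMF high and untreated low controls.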
# [4] = Hepatocyte stability assay, mouse; type: in vitro ADME; details: mouse, hepatocytes; for hepatocyte CLint at 10 μM: Hepatocyte stability Clint; for half-life at 10 μM: Hepatocyte stability T½
# How it was run: (§1)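 Cryopreserved hepatocytes (viability >70%), 0.5×10^6 cells/mL in Leibovitz buffer, preincubated 10 min at 37° C, then 10 μM compound (0.1% DMSO) in duplicate; sampled 0-60 min, acetonitrile quench, LC-MS/MS. CLint and half-life from ln % remaining vs time; buffer-only incubation as negative control.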
# [5] = tested on: mouse cryopreserved hepatocytes; assay: Hepatocyte stability assay, mouse; type: in vitro ADME
# How it was run: as §1
# [6] = Hepatocyte stability assay, human; type: in vitro ADME; details: human, hepatocytes; for hepatocyte CLint at 10 μM: Hepatocyte stability Clint; for half-life at 10 μM: Hepatocyte stability T½
# How it was run: as §1
# [7] = tested on: human cryopreserved hepatocytes; assay: Hepatocyte stability assay, human; type: in vitro ADME
# How it was run: as §1
# [8] = Homo sapiens, THP-1, Table 3, head to head comparison of exo vs endo double bond compounds
# [9] = Homo sapiens, THP-1, differentiated THP-1 cells, LPS then nigericin
# [10] = Homo sapiens, THP-1, differentiated THP-1 cells, data from repeated experiments
# [11] = −GSH, Table 5 exo vs endo comparison
# [12] = differentiated THP-1 cells, LPS then nigericin
# [13] = Mouse hepatocytes, compound 10 μM, 0.5×10^6 cells/mL, 60 minutes (a n=2, b n=3)
# [14] = Human hepatocytes, compound 10 μM, 0.5×10^6 cells/mL, 60 minutes (a n=2, c n=4)
# [15] = +GSH, 30 minute compound-GSH pre-incubation, read-out: NRF2 activation +GSH EC50
# [16] = −GSH, U2OS PathHunter cells, 6 hours compound treatment, read-out: NRF2 activation −GSH EC50
smiles,measurement,setting,value
"C=C(Cc1nc(CCCCCCCC)no1)C(=O)O [Example 1, 2-((3-octyl-1,2,4-oxadiazol-5-yl)methyl)acrylic acid]",IC50,[1]; [8],4.9 µM
same,IC50,"[1]; Homo sapiens, THP-1, Table 3, data from repeated experiment",4.7 µM
same,IC50,[1]; [9],4.9 µM
same,IC50,[1]; [10],4.7 µM
same,"reduction of cytokine release versus comparators, in words",[1]; compared with 4-octyl itaconate and 2-(2-chlorobenzyl)acrylic acid,reduced cytokine release more effectively than 4-octyl itaconate and 2-(2-chlorobenzyl)acrylic acid
same,IC50,[2]; [9],3.7 µM
same,IC50,[2]; [10],4 µM
same,NRF2 activation +GSH Emax,[3]; +GSH,187%
same,"NRF2 activation, result in words",[3]; −GSH and/or +GSH,activated NRF2 more potently and with higher efficacy than 4-octyl itaconate and 2-(2-chlorobenzyl)acrylic acid
same,NRF2 activation −GSH Emax,[3]; −GSH,243%
same,−GSH Emax,[3]; [11],243%
same,hepatocyte CLint at 10 μM,[4],118 µL/min/1e6 cells
same,half-life at 10 μM,[4],12 min
same,"stability in mouse cryopreserved hepatocytes, in words","[5]; mouse, hepatocytes",improved stability
same,hepatocyte CLint at 10 μM,[6],115 µL/min/1e6 cells
same,half-life at 10 μM,[6],12 min
same,"stability in human cryopreserved hepatocytes, in words","[7]; human, hepatocytes",improved stability
"C=C(CC(=O)OCCCCCCCC)C(=O)O [4-octyl itaconate, 4-Octyl itaconate, reference compound]",IC50,[1]; [12],37.8 µM
same,IC50,[2]; [12],19.1 µM
same,NRF2 activation +GSH Emax,[3]; +GSH,148%
same,NRF2 activation −GSH Emax,[3]; −GSH,165%
same,Hepatocyte stability Clint,[5]; [13],351 μL min^−1 10^−6 cells
same,Hepatocyte stability T½,[5]; [13],4 min
same,Hepatocyte stability Clint,[7]; [14],401 μL min^−1 10^−6 cells
same,Hepatocyte stability T½,[7]; [14],4 min
"C=C(Cc1nc(C2(c3ccc(C(F)(F)F)cc3)CC2)no1)C(=O)O [Example 22, 2-((3-(1-(4-(trifluoromethyl)phenyl)cyclopropyl)-1,2,4-oxadiazol-5-yl)methyl)acrylic acid]",IC50,[1]; [9],10.9 µM
same,IC50,[1]; [10],8.7 µM
same,IC50,[2]; [10],43.5 µM
same,EC50,[3]; [15],60.2 µM
same,NRF2 activation +GSH Emax,[3]; +GSH,62%
same,EC50,[3]; [16],48.7 µM
same,NRF2 activation −GSH Emax,[3]; −GSH,69%
same,hepatocyte CLint at 10 μM,[4],42 µL/min/1e6 cells
same,half-life at 10 μM,[4],41 min
same,hepatocyte CLint at 10 μM,[6],20 µL/min/1e6 cells
same,half-life at 10 μM,[6],84 min
"C=C(Cc1nc(C2(c3ccc(SC(F)(F)F)cc3)CC2)no1)C(=O)O [Example 86, 2-((3-(1-(4-((trifluoromethyl)thio)phenyl)cyclopropyl)-1,2,4-oxadiazol-5-yl)methyl)acrylic acid]",IC50,[1]; [8],8.4 µM
same,IC50,[1]; [9],8.4 µM
same,IC50,[2]; [9],9.4 µM
same,EC50,[3]; [15],35 µM
same,NRF2 activation +GSH Emax,[3]; +GSH,221%
same,EC50,"[3]; −GSH, Table 5 exo vs endo comparison, read-out: −GSH EC50",18 µM
same,EC50,[3]; [16],18 µM
same,NRF2 activation −GSH Emax,[3]; −GSH,320%
same,−GSH Emax,[3]; [11],320%
same,hepatocyte CLint at 10 μM,[4],17 µL/min/1e6 cells
same,half-life at 10 μM,[4],103 min
same,hepatocyte CLint at 10 μM,[6],7 µL/min/1e6 cells
same,half-life at 10 μM,[6],235 min
"C=C(Cc1nc(C2(c3ccc(Cl)cc3)CC2)no1)C(=O)O [Example 10, 2-((3-(1-(4-chlorophenyl)cyclopropyl)-1,2,4-oxadiazol-5-yl)methyl)acrylic acid]",IC50,[1]; [9],10 µM
same,IC50,[2]; [9],26.2 µM
same,EC50,[3]; [15],45.2 µM
same,NRF2 activation +GSH Emax,[3]; +GSH,53%
same,EC50,[3]; [16],36.8 µM
same,NRF2 activation −GSH Emax,[3]; −GSH,67%
same,hepatocyte CLint at 10 μM,[4],125 µL/min/1e6 cells
same,half-life at 10 μM,[4],8 min
same,hepatocyte CLint at 10 μM,[6],27 µL/min/1e6 cells
same,half-life at 10 μM,[6],47 min
"C=C(Cc1nc(-c2ccc(CCCCC(F)(F)F)cc2)no1)C(=O)O [Example 75, 2-((3-(4-(5,5,5-trifluoropentyl)phenyl)-1,2,4-oxadiazol-5-yl)methyl)acrylic acid]",IC50,[1]; [9],13.7 µM
same,IC50,[2]; [9],3.1 µM
same,EC50,[3]; [15],7.1 µM
same,NRF2 activation +GSH Emax,[3]; +GSH,188%
same,EC50,[3]; [16],4.8 µM
same,NRF2 activation −GSH Emax,[3]; −GSH,263%
same,hepatocyte CLint at 10 μM,[4],480 µL/min/1e6 cells
same,half-life at 10 μM,[4],4 min
same,hepatocyte CLint at 10 μM,[6],80 µL/min/1e6 cells
same,half-life at 10 μM,[6],15 min
"C=C(Cc1nc(CCCCCCC)no1)C(=O)O [Example 6, 2-((3-heptyl-1,2,4-oxadiazol-5-yl)methyl)acrylic acid]",IC50,[1]; [9],24.7 µM
same,IC50,[2]; [9],26 µM
same,EC50,[3]; [15],29.1 µM
same,NRF2 activation +GSH Emax,[3]; +GSH,170%
same,EC50,[3]; [16],22.9 µM
same,NRF2 activation −GSH Emax,[3]; −GSH,190%
same,hepatocyte CLint at 10 μM,[4],185 µL/min/1e6 cells
same,half-life at 10 μM,[4],9 min
same,hepatocyte CLint at 10 μM,[6],38 µL/min/1e6 cells
same,half-life at 10 μM,[6],31 min
"C=C(Cc1nc(C2CC3(C2)CC2(CCC2)C3)no1)C(=O)O [Example 62, 2-((3-(dispiro[3.1.3^6.1^4]decan-2-yl)-1,2,4-oxadiazol-5-yl)methyl)acrylic acid]",IC50,[1]; [9],17.9 µM
same,IC50,[2]; [9],21.5 µM
same,EC50,[3]; [15],27.4 µM
same,NRF2 activation +GSH Emax,[3]; +GSH,149%
same,EC50,[3]; [16],20 µM
same,NRF2 activation −GSH Emax,[3]; −GSH,229%
same,hepatocyte CLint at 10 μM,[4],119 µL/min/1e6 cells
same,half-life at 10 μM,[4],10 min
same,hepatocyte CLint at 10 μM,[6],57 µL/min/1e6 cells
same,half-life at 10 μM,[6],26 min
